Test results taken from patent publication US4680396A, “Bis(aminoalkyl)piperazine derivatives and their use as metal ion control agents” (The Dow Chemical Company, priority 1984, dated 1987).
“Also recorded” adds a separate entry of the source. Where a name gives a salt, the structure may show the parent alone.

What was measured:
[1] = Calcium Scale Inhibitor Test (NACE test method TM-03-74), calcium carbonate scale; settings: for Percent Inhibition at 24 Hrs. / Percent Inhibition at 48 Hrs. / Percent Inhibition at 72 Hrs.: 10 ppm based on active acid content; for threshold activity (in words): threshold agent, less than stoichiometric amounts
Procedure: To show the utility of the above compounds as scale inhibitors, the following test was run.
Calcium Scale Inhibitor Test
The compounds were evaluated as scale inhibitors for calcium carbonate scale according to National Association of Corrosion Engineers (NACE) test method TM-03-74. Note the dramatic improvement of the phosphonic acids prepared from the bis(aminoethyl)piperazine and bis(aminopropyl)piperazine compounds of this invention when compared to aminoethylpiperazinetrimethylenephosphonic acid taught in the U.S. patent literature as a good scale inhibition compound.
*ppm based on active acid content

[2] = Titration with standard copper solution in the presence of chrome azurol-S indicator (sequestering/chelating); settings: titrated with standard copper solution
From the text: The compounds of this invention can also function as sequestering/chelating agents. For example, compounds were titrated with standard copper solution in the presence of chrome azurol-S indicator. The compound of Example 9 complexed about one mole of copper per mole of ligand. […] The compound of Example 3 was titrated and found to complex approximately three moles of copper per mole of ligand. The compound can function as either a threshold compound or a chelating agent.

Row | SMILES | Percent Inhibition at 24 Hrs. [1] | Percent Inhibition at 48 Hrs. [1] | Percent Inhibition at 72 Hrs. [1] | copper complexed per mole of ligand [2] | threshold activity (in words) [1]
1 | O=P(O)(O)CN(CCCN1CCN(CCCN(CP(=O)(O)O)CP(=O)(O)O)CC1)CP(=O)(O)O [Example 1, completely phosphonomethylated bis(aminopropyl)piperazine] | 99% | 93% | 90% | – | –
2 | O=P(O)(O)CNCCCN1CCN(CCCN(CP(=O)(O)O)CP(=O)(O)O)CC1 [Example 2] | 99% | 93% | 91% | – | –
3 | O=P(O)(O)CN(CCN1CCN(CCN(CP(=O)(O)O)CP(=O)(O)O)CC1)CP(=O)(O)O [Example 3] | 99% | 91% | 89% | approximately three | –
4 | O=P(O)(O)CNCCN1CCN(CCN(CP(=O)(O)O)CP(=O)(O)O)CC1 [Example 4] | 97% | 87% | 79% | – | –
5 | O=C(O)CN(CCN1CCN(CCN(CP(=O)(O)O)CP(=O)(O)O)CC1)CP(=O)(O)O [Example 5] | 96% | 89% | 83% | – | –
6 | O=P(O)(O)CN(CCN1CCN(CCN(CP(=O)(O)O)CP(=O)(O)O)CC1)CC(O)CS(=O)(=O)O (stereo not shown) [Example 6] | 85% | 73% | 75% | – | –
7 | O=P(O)(O)CN(CCCN1CCN(CCCN(CP(=O)(O)O)CP(=O)(O)O)CC1)CC(O)CS(=O)(=O)O (stereo not shown) [Example 7] | 92% | 77% | 79% | – | –
8 | CC(O)CN(CCN1CCN(CCN(CP(=O)(O)O)CP(=O)(O)O)CC1)CP(=O)(O)O (stereo not shown) [Example 8] | 79% | 77% | 73% | – | –
9 | O=C(O)CN(CCN1CCN(CCN(CC(=O)O)CC(=O)O)CC1)CC(=O)O [Example 9, tetrasodium salt of bis(aminoethyl)piperazine-tetraacetic acid] | 55% | 51% | 50% | about one | not a good threshold compound; also recorded: ineffective as a threshold compound
10 | O=P(O)(O)CN1CCN(CCN(CP(=O)(O)O)CP(=O)(O)O)CC1 [Example A, aminoethylpiperazine trimethylenephosphonic acid, reference compound] | 77% | 65% | 60% | – | not have very good threshold activity
